The target of one series is T1, CYP3A4 (Homo sapiens, UniProt P08684).
T1 construct: utilizes human liver microsomes together with isoform-specific clinical drug probes; from tissue; host or cells: human liver microsomes
The series can be described thus: High density drug-drug interactions (DDI) 3 μM cocktail screen in human liver microsomes. Format: in vitro ADME. As to conditions: 3 uM test compound, pooled human liver microsomes, probe midazolam 2 μM; read-out: % Inhibition of 3A4 metabolism at 3 uM. On the technique in general: Liver microsomes are a subcellular fraction often used to study metabolism.

The nature of series [1]: In vitro metabolism rate determination, human liver microsome (HLM) assay. Particulars: human liver microsomes, substrate 1 μM; read-out: HLM (intrinsic clearance). It is filed as in vitro ADME.

T1 sequence (P08684 whole entry, canonical isoform): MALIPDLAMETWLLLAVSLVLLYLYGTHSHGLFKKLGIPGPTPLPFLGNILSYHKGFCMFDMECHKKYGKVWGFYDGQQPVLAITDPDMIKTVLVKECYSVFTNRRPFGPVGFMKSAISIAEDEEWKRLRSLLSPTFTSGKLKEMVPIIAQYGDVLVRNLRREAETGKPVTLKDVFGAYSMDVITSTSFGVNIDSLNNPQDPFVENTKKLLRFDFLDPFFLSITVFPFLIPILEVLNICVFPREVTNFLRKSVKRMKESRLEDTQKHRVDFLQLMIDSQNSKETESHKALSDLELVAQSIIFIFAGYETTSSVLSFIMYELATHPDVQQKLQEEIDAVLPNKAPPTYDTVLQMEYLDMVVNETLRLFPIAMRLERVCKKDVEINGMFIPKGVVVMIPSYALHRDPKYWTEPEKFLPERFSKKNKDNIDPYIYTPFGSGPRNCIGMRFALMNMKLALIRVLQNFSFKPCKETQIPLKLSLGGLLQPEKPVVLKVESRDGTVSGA

A word on the inhibition: it is the relative decrease from the control value, in per cent. Regarding `C[C@@H]1CN(C(=O)[C@@H]2CN(c3ccc(=O)n(C)n3)C[C@H]2c2ccc(Cl)cn2)C[C@H](C)[C@@]1(O)C1CCCCC1` [Example 17], the inhibition at 3 μM at CYP3A4 worked out at 35%. Moreover, the microsomal CLint at 1 μM in series [1] was over 440 µL/min/mg.
In the case of `C[C@@H]1CN(C(=O)[C@@H]2CN(c3ccc(=O)n(C)n3)C[C@H]2c2ccc(Cl)cn2)C[C@H](C)[C@@]1(O)C1CC1` [Example 18], on CYP3A4, the inhibition at 3 μM came to 34%. In series [1], the microsomal CLint at 1 μM is 67 µL/min/mg.
The matching figures for `CC1CN(C(=O)C2CN(c3ccc(=O)n(C)n3)CC2c2ccc(Cl)cn2)CC(C)C1(O)c1ccc(F)c(F)c1` (centres unmarked) [Example 19]: 50% and 21 µL/min/mg.
Regarding `COc1ccc(C2(O)C(C)CN(C(=O)C3CN(c4ccc(=O)n(C)n4)CC3c3ccc(Cl)cn3)CC2C)cc1` (centres unmarked) [Example 20], the inhibition at 3 μM on CYP3A4 worked out at 35%. The microsomal CLint at 1 μM in series [1] came out at 31 µL/min/mg.
`CC1CN(C(=O)C2CN(c3ccc(=O)n(C)n3)CC2c2ccc(Cl)cn2)CC(C)C1(O)c1ccccc1` (centres unmarked) [Example 21]: the inhibition at 3 μM on CYP3A4 came out at 25%. For the same compound, the microsomal CLint at 1 μM in series [1] amounted to 144 µL/min/mg.
Take `C[C@@H]1CN(C(=O)[C@@H]2CN(c3ccc(=O)n(C)n3)C[C@H]2c2ccc(Cl)cn2)C[C@H](C)[C@@]1(O)c1ccccn1` [Example 22]: the inhibition at 3 μM on CYP3A4 was found to be 54%. In addition, the microsomal CLint at 1 μM in series [1] was 179 µL/min/mg.
Take `CC1CN(C(=O)C2CN(c3ccc(=O)n(C)n3)CC2c2ccc(Cl)cn2)CC(C)C1(O)c1ccc(Cl)cc1` (centres unmarked) [Example 23]: at CYP3A4, the inhibition at 3 μM is 35%. Also, in series [1], the microsomal CLint at 1 μM is under 15.5 µL/min/mg.
`CC1CN(C(=O)C2CN(c3cncc(F)c3)CC2c2ccc(Cl)cn2)CC(C)C1(O)C1CC1` (centres unmarked) [Example 24]: the inhibition at 3 μM at CYP3A4 was 87%. Further, the microsomal CLint at 1 μM in series [1] is 355 µL/min/mg.
On to `CC1CN(C(=O)C2CN(c3cncc(F)c3)CC2c2ccc(Cl)cn2)CC(C)C1(O)c1ccc(F)cc1` (centres unmarked) [Example 25], for which the inhibition at 3 μM on CYP3A4 came to 16%. The microsomal CLint at 1 μM in series [1] was 308 µL/min/mg.
On to `COc1ccc(N2CC(C(=O)N3CC(C)C(O)(C4CC4)C(C)C3)C(c3ccc(Cl)cn3)C2)nn1` (centres unmarked) [Example 26], for which, at CYP3A4, the inhibition at 3 μM is 61%. For the same compound, in series [1], the microsomal CLint at 1 μM worked out at 70 µL/min/mg.
For the compound `CC1CN(C(=O)C2CN(c3ccc(=O)[nH]n3)CC2c2ccc(Cl)cn2)CC(C)C1(O)c1ccccc1` (centres unmarked) [Example 27], the inhibition at 3 μM on CYP3A4 stood at 64%. The microsomal CLint at 1 μM in series [1] worked out at 51 µL/min/mg.
On to `C[C@@H]1CN(C(=O)[C@@H]2CN(c3ccc(=O)[nH]n3)C[C@H]2c2ccc(Cl)cn2)C[C@H](C)[C@@]1(O)c1ccccn1` [Example 28], for which, at CYP3A4, the inhibition at 3 μM is 77%. Moreover, the microsomal CLint at 1 μM in series [1] stood at 33 µL/min/mg.
As for `CC1CN(C(=O)C2CN(c3ccc(C#N)nn3)CC2c2ccc(Cl)cn2)CC(C)C1(O)c1ccccn1` (centres unmarked) [Example 30], on CYP3A4, the inhibition at 3 μM was found to be 38%. For the same compound, the microsomal CLint at 1 μM in series [1] was found to be 141 µL/min/mg.
As for `C[C@@H]1CN(C(=O)[C@@H]2CN(c3ccc(Cl)nn3)C[C@H]2c2ccc(Cl)cn2)C[C@H](C)[C@@]1(O)c1ccccn1` [Example 31], the inhibition at 3 μM on CYP3A4 was found to be 60%. Moreover, the microsomal CLint at 1 μM in series [1] came to 188 µL/min/mg.
With `C[C@@H]1CN(C(=O)[C@@H]2CN(c3ccc(C#N)nn3)C[C@H]2c2ccc(F)cn2)C[C@H](C)[C@@]1(O)c1ccc(Cl)cc1` [Example 32], the inhibition at 3 μM at CYP3A4 came out at 31%. Besides, the microsomal CLint at 1 μM in series [1] is 8 µL/min/mg.
The like results for `CC1CN(C(=O)C2CN(c3ccc(C#N)nn3)CC2c2ccc(F)cn2)CC(C)C1(O)c1ccccc1` (centres unmarked) [Example 33] were, in that order, 19% and 186 µL/min/mg.
`C[C@@H]1CN(C(=O)[C@@H]2CN(c3ccc(Cl)nn3)C[C@H]2c2ccc(F)cn2)C[C@H](C)[C@@]1(O)c1ccccc1` [Example 35]: the inhibition at 3 μM on CYP3A4 turned out to be 46%. For the same compound, the microsomal CLint at 1 μM in series [1] amounted to 100 µL/min/mg.
In the case of `CC1CN(C(=O)C2CN(c3ccc(=O)[nH]n3)CC2c2ccc(F)cn2)CC(C)C1(O)c1ccccc1` (centres unmarked) [Example 37], the inhibition at 3 μM at CYP3A4 came out at 45%. Also, in series [1], the microsomal CLint at 1 μM was 19.5 µL/min/mg.
Take `CC1CN(C(=O)C2CN(c3ccc(=O)n(C)n3)CC2c2ccc(F)cn2)CC(C)C1(O)c1ccccc1` (centres unmarked) [Example 39]: the inhibition at 3 μM at CYP3A4 was found to be 30%. For the same compound, the microsomal CLint at 1 μM in series [1] was determined as 95 µL/min/mg.
Regarding `CC1CN(C(=O)C2CN(c3ccc(=O)n(C)n3)CC2c2ccc(F)cn2)CC(C)C1(O)c1ccc(F)cc1` (centres unmarked) [Example 40], the inhibition at 3 μM on CYP3A4 stood at 64%. Further, the microsomal CLint at 1 μM in series [1] was under 7 µL/min/mg.
Regarding `COc1ccc([C@@H]2CN(c3ccc(=O)[nH]n3)C[C@H]2C(=O)N2C[C@@H](C)[C@](O)(c3ccc(Cl)cn3)[C@@H](C)C2)nc1` [Example 41], the inhibition at 3 μM at CYP3A4 stood at 52%. Besides, the microsomal CLint at 1 μM in series [1] was 21 µL/min/mg.
The matching figures for `COc1ccc(C2CN(c3ccc(=O)[nH]n3)CC2C(=O)N2CC(C)C(O)(c3ccc(F)cc3)C(C)C2)nc1` (centres unmarked) [Example 42]: 59% and 25 µL/min/mg.
As for `COc1ccc([C@@H]2CN(c3ccc(C#N)nn3)C[C@H]2C(=O)N2C[C@@H](C)[C@](O)(c3ccc(F)cc3)[C@@H](C)C2)nc1` [Example 43], the inhibition at 3 μM at CYP3A4 is 44%. Moreover, the microsomal CLint at 1 μM in series [1] was determined as 37 µL/min/mg.
The like results for `CC1CN(C(=O)C2CN(c3ccc(C#N)cn3)CC2c2ccc(C#N)cn2)CC(C)C1(O)c1ccc(F)cc1` (centres unmarked) [Example 45] were, in that order, 69% and under 7 µL/min/mg.
As to `C[C@@H]1CN(C(=O)[C@@H]2CN(c3ccc(C#N)nn3)C[C@H]2c2ccc(C#N)cn2)C[C@H](C)[C@@]1(O)c1ccc(F)cc1` [Example 46], the inhibition at 3 μM at CYP3A4 was 74%. Moreover, the microsomal CLint at 1 μM in series [1] is under 7 µL/min/mg.
